{"source": "patent US8906604B2", "about": "“Store-operated calcium cellular assay” (National Center for Biological Sciences, priority 2009, dated 2014)", "origin": "cited, not measured here", "settings": "in Drosophila S2 cells; published value (Hardie et al. 1996); read-out: Kd value for Indo-1"}
{"smiles": "Cc1ccc(N(CC(=O)O)CC(=O)O)c(OCCOc2cc(-c3cc4ccc(C(=O)O)cc4[nH]3)ccc2N(CC(=O)O)CC(=O)O)c1", "note": "[Indo-1]", "values": [{"measurement": "Kd", "result": 1160, "unit": "nM"}]}
